# Source: patent US5547958A, “N-(8α-ergolinyl)-amides” (Schering Aktiengesellschaft, priority 1989, dated 1996)
# Tested on: behavior stereotypes on rats (masticatory, licking, or gnawing movements)
# Test: Stereotype-releasing effectiveness on rats 1 hour after i.p. pretreatment (dopamine agonistic action)
# Type: in vivo
# Conditions: probit analysis, n = 8; for ED50 (effective dose, stereotype-releasing effectiveness): 60th-62nd min p.i.
# Method: The dopamine agonistic action was determined according to Horowski, R. and Wachtel, H. Eur. J. Pharmaz. col. 36: 373-383, 1976. One hour after i.p. pretreatment with test substance or vehicle, the presence of behavior stereotypes on rats (masticatory, licking, or gnawing movements) was determined for 2 minutes (60th-62nd min. p.i.).
# Stereotype-releasing effectiveness on rats 1 hour
# after i.p. pretreatment. Effective doses (ED50) with 95%
# confidence limit were determined with the help of probit
SMILES,"ED50 (effective dose, stereotype-releasing effectiveness)",95% Confidence Limit of ED50
"CCCN1CC(NC(=S)SC)C[C@@H]2c3cccc4[nH]c(C)c(c34)C[C@H]21 (stereo partly shown) [A, N(2-methyl-6-n-propyl-8ergolinyl)-dithiocarbamic acid methyl ester]",0.080,0.010-0.170
"CCCN1CC(NC=S)C[C@@H]2c3cccc4[nH]c(C)c(c34)C[C@H]21 (stereo partly shown) [B, N(2-methyl-6-n-propyl-8ergolinyl)-thioformamide]",0.050,0.034-0.079
